Results reported in ChEMBL document CHEMBL3044895, “Insecticidal and Antiacetyicholinesterase Activities of Isobutylthioaryl Methanesulfonates” (J Pestic Sci, 1991).

Columns and labels:
[1] = system: Nilaparvata lugens; experiment: Insecticidal activity against Nilaparvata lugens (brown planthopper) assessed as mortality at 200 ppm after 2 days by foliar spraying method; type: functional; details: 48 h
[2] = system: Nephotettix cincticeps; experiment: Insecticidal activity against drug-resistant Nephotettix cincticeps Izumi (green rice leafhopper) assessed as mortality […] after 2 days by foliar spraying method; type: functional; details: 48 h
[3] = system: Tetranychus urticae; experiment: Acaricidal activity against Tetranychus urticae (two-spotted spider mite) assessed as mortality at 200 ppm after 2 days by leaf dipping method; type: functional; details: foliar, 48 h
[4] = Lipophilicity, log K of the compound; type: physicochemical; details: octanol/water
[5] = system: Culex pipiens; experiment: Insecticidal activity against Culex pipiens assessed as mortality at 200 ppm after 2 days by immersion method; type: functional; details: 48 h
[6] = system: Nephotettix cincticeps; experiment: Insecticidal activity against Nephotettix cincticeps Izumi (green rice leafhopper) assessed as mortality at 200 ppm after 2 days by foliar spraying method; type: functional; details: 48 h
[7] = Drug degradation in sorensen buffer assessed as hydrolysis at 3 x 10^-5 M at pH 7.4 after 24 hr; type: physicochemical; details: read-out: Drug degradation
[8] = system: Nephotettix cincticeps; experiment: Insecticidal activity against drug-susceptible Nephotettix cincticeps Ageo (green rice leafhopper) assessed as mortality […] after 2 days by foliar spraying method; type: functional; details: 48 h
[9] = system: Plutella xylostella; experiment: Insecticidal activity against Plutella xylostella (diamondback moth) assessed as mortality at 200 ppm after 2 days by foliar spraying method; type: functional; details: 48 h
[10] = target: Acetylcholinesterase (Musca domestica, UniProt Q7YWJ9); experiment: Inhibition of Musca domestica (house fly) NAIDM head acetylcholinesterase; details: read-out: I50
[11] = target: Ace-orthologous acetylcholinesterase (Nephotettix cincticeps, UniProt Q9NJH6); experiment: Inhibition of drug-susceptible Nephotettix cincticeps Ageo (green rice leafhopper) acetylcholinesterase; details: read-out: I50
[12] = system: Nilaparvata lugens; experiment: Insecticidal activity against Nilaparvata lugens (brown planthopper) assessed as mortality at 200 ppm after 6 days by foliar spraying method; type: functional; details: 144 h
[13] = system: Nephotettix cincticeps; experiment: Insecticidal activity against Nephotettix cincticeps Izumi (green rice leafhopper) assessed as mortality at 200 ppm after 6 days by foliar spraying method; type: functional; details: 144 h
[14] = system: Nephotettix cincticeps; experiment: Insecticidal activity against drug-susceptible Nephotettix cincticeps Ageo (green rice leafhopper) assessed as mortality after 2 days by foliar spraying method; type: functional; details: 48 h
[15] = target: T1, Acetylcholinesterase (Bos taurus, UniProt P23795); experiment: Inhibition of Bos taurus (bovine) erythrocytes acetylcholinesterase; details: read-out: I50
T1 sequence (P23795 whole entry): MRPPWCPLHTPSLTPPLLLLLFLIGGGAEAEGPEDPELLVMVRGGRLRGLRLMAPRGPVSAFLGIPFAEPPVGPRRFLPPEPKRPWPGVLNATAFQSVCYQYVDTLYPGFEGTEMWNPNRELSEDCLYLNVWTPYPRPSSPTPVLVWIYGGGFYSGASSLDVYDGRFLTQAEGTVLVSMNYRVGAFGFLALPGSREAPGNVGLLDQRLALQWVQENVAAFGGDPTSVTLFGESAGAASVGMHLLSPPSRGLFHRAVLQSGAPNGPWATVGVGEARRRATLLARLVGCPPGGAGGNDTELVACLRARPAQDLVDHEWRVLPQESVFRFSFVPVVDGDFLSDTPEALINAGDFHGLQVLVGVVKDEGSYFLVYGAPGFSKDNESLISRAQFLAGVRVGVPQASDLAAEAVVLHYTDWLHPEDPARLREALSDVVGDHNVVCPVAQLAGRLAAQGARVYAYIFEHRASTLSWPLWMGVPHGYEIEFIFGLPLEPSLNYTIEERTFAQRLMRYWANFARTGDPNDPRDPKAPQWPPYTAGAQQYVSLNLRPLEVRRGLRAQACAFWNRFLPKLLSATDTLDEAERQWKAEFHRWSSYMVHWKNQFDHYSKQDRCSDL

[16] = system: Musca domestica; experiment: Insecticidal activity against Musca domestica (house fly) NAIDM; type: functional

Sequence of Acetylcholinesterase (Musca domestica, UniProt Q7YWJ9) (Q7YWJ9 whole entry): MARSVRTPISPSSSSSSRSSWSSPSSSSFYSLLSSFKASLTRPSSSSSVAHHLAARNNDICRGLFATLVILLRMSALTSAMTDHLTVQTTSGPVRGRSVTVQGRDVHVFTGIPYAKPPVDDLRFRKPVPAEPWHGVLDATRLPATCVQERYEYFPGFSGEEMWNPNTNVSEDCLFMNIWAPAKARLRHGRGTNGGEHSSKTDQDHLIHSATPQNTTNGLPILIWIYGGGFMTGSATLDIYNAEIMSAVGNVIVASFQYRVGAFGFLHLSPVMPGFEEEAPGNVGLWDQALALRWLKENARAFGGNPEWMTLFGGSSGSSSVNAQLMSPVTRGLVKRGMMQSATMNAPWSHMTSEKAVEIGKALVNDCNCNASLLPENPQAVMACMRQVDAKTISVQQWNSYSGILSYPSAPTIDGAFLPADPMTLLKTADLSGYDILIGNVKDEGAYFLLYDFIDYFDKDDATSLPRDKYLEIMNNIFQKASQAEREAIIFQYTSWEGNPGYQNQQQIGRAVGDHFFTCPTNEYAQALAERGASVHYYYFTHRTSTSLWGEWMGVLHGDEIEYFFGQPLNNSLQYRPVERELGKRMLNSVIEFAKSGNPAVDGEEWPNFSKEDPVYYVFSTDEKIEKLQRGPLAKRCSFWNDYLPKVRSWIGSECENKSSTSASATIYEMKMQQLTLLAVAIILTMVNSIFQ
Sequence of Ace-orthologous acetylcholinesterase (Q9NJH6 whole entry): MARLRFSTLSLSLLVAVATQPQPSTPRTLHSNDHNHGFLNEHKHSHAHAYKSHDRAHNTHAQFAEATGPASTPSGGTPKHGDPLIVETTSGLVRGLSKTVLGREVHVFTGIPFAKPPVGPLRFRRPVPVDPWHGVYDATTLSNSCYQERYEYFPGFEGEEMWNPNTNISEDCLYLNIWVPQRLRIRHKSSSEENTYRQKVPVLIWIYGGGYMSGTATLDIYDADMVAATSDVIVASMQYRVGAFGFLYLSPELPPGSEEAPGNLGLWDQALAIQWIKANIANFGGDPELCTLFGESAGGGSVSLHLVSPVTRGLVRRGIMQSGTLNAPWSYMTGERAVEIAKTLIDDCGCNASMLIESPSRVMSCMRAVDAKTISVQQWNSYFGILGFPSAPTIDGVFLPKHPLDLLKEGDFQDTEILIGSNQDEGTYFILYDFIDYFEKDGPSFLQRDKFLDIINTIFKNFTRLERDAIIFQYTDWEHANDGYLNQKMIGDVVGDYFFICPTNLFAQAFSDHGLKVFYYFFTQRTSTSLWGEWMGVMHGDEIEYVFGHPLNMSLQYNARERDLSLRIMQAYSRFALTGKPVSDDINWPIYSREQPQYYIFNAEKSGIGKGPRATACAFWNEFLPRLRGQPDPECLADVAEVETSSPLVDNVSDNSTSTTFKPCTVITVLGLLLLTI

SMILES | mortality at 200 ppm [1] | LD50 [2] | mortality at 200 ppm [3] | log K [4] | mortality at 200 ppm [5] | mortality at 200 ppm [6] | degraded at 24 h, 30 µM [7] | LD50 [8] | mortality at 200 ppm [9] | IC50 [10] | IC50 [11] | mortality at 200 ppm [12] | mortality at 200 ppm [13] | LD50 [14] | IC50 [15] | LD50 [16]
CC(C)CSc1cccc(OS(C)(=O)=O)c1 [3-(ISOBUTYLTHIO)PHENYL METHANESULFONATE] | 100% | 26.1 mg/kg | < 10% | 0.541 | 100% | 100% | 2.6% | 10.8 mg/kg | 0% |  |  |  |  |  |  | 
CNC(=O)Oc1cccc2ccccc12 [CARBARIL] |  |  |  |  |  |  |  |  |  | 0.2 µM | 0.029 µM |  |  |  |  | 
CC(C)CSc1cc2ccccc2c(OS(C)(=O)=O)n1 [3-(ISOBUTYLTHIO)ISOQUINOLIN-1-YL METHANESULFONATE] | 0% |  | < 10% |  | 50% | 20% |  |  | 0% |  |  | 10% | 80% |  |  | 
CC(C)CSc1nccc(OS(C)(=O)=O)n1 | 20% | > 100 mg/kg | < 10% | 0.18 | 0% | 20% | 88.8% | > 100 mg/kg | 0% |  |  | 20% | 30% |  |  | 
CC(C)CSc1ccc(OS(C)(=O)=O)nn1 [6-(ISOBUTYLTHIO)PYRIDAZIN-3-YL METHANESULFONATE] | 0% |  | < 10% |  | 0% | 0% |  |  | 0% |  |  | 0% | 0% |  |  | 
CC(C)CSc1cccnc1OS(C)(=O)=O [3-(ISOBUTYLTHIO)PYRIDIN-2-YL METHANESULFONATE] | 50% |  | < 10% |  | 30% | 40% |  |  | 0% |  |  | 90% | 100% |  |  | 
CC(C)CSc1nc(OS(C)(=O)=O)cc2ccccc12 | 0% |  | < 10% |  | 40% | 30% |  |  | 0% |  |  | 60% | 60% |  |  | 
CC(C)CSc1cc(OS(C)(=O)=O)ccn1 | 70% | 66.4 mg/kg | < 10% | 0.379 | 100% | 30% | 5.9% | 5.4 mg/kg | 70% |  |  | 100% | 70% |  |  | 
CC(C)CSc1cccc(OS(C)(=O)=O)n1 [6-(ISOBUTYLTHIO)PYRIDIN-2-YL METHANESULFONATE] | 100% | 2.9 mg/kg | 72% | 0.4 | 100% | 100% | 1.8% | 1.8 mg/kg | 0% | 1300 µM | 2000 µM |  |  | 1.06 mg/kg | 2000 µM | 1.11 µg
CC(C)CS(=O)(=O)c1cccc(OS(C)(=O)=O)n1 |  |  |  |  |  |  |  |  |  | 0.15 µM | 0.0057 µM |  |  | 1.15 mg/kg | 0.9 µM | 16 µg
CC(C)CS(=O)(=O)c1ccnc(OS(C)(=O)=O)c1 [4-(ISOBUTYLSULFONYL)PYRIDIN-2-YL METHANESULFONATE] |  |  |  |  |  |  |  |  |  | 1.9 µM | 0.026 µM |  |  | 0.72 mg/kg | 0.8 µM | 0.33 µg
CC(C)CSc1nnc(OS(C)(=O)=O)s1 [5-(ISOBUTYLTHIO)-1,3,4-THIADIAZOL-2-YL METHANESULFONATE] | 0% |  | < 10% |  | 0% | 0% |  |  | 70% |  |  | 20% | 0% |  |  | 
CC(C)CSc1ccc(OS(C)(=O)=O)nc1 [5-(ISOBUTYLTHIO)PYRIDIN-2-YL METHANESULFONATE] | 100% |  | < 10% |  | 10% | 0% |  |  | 0% |  |  |  | 10% |  |  | 
CC(C)CS(=O)(=O)c1cccc(OS(C)(=O)=O)c1 [3-(ISOBUTYLSULFONYL)PHENYL METHANESULFONATE] |  |  |  |  |  |  |  |  |  | 0.37 µM | 0.046 µM |  |  | 13 mg/kg | 1 µM | >100 µg
CC(C)CSc1ccnc(OS(C)(=O)=O)c1 [4-(ISOBUTYLTHIO)PYRIDIN-2-YL METHANESULFONATE] | 100% | 2.8 mg/kg | < 10% | 0.324 | 100% | 100% | 4.5% | 2.3 mg/kg | 0% |  |  |  |  |  |  | 
CC(C)CSc1cncc(OS(C)(=O)=O)n1 [6-(ISOBUTYLTHIO)PYRAZIN-2-YL METHANESULFONATE] | 100% | 40.1 mg/kg | < 10% | 0.32 | 100% | 50% | 36.6% | 4.6 mg/kg | 0% |  |  |  | 70% |  |  | 
CC(C)C[S+]([O-])c1cccc(OS(C)(=O)=O)c1 (stereo unspecified) [3-(ISOBUTYLSULFINYL)PHENYL METHANESULFONATE] |  |  |  |  |  |  |  |  |  | 12 µM | 0.002 µM |  |  | 3.18 mg/kg | 0.56 µM | 1.46 µg
CC(C)CSc1nc(OS(C)(=O)=O)cs1 | 100% | 11.1 mg/kg | < 10% | 0.316 | 100% | 100% | 9.8% | 8.2 mg/kg | 0% | 2200 µM | 58 µM |  |  | 14.9 mg/kg | 31 µM | 3.9 µg
CCC(C)c1ccccc1OC(=O)NC (stereo unspecified) [FENOBUCARB] |  |  |  |  |  |  |  |  |  | 1.4 µM | 0.18 µM |  |  | 11.8 mg/kg | 12 µM | 1.44 µg
CC(C)CS(=O)(=O)c1nc(OS(C)(=O)=O)cs1 |  |  |  |  |  |  |  |  |  | 0.00098 µM | 0.0019 µM |  |  | 0.52 mg/kg | 1.4 µM | >100 µg
CC(C)CSc1cncc(OS(C)(=O)=O)c1 [5-(ISOBUTYLTHIO)PYRIDIN-3-YL METHANESULFONATE] | 100% | 3.7 mg/kg | < 10% | 0.258 | 100% | 100% | 3.8% | 1.9 mg/kg | 0% |  |  |  |  |  |  | 
CC(C)CSc1cc(OS(C)(=O)=O)ncn1 [6-(ISOBUTYLTHIO)PYRIMIDIN-4-YL METHANESULFONATE] | 80% | > 100 mg/kg | < 10% | 0.391 | 0% | 0% | 100% | > 100 mg/kg | 0% |  |  | 100% | 0% |  |  | 
